Source: PMC10779987, “Machine-Learning- and Structure-Based Virtual Screening for Selecting Cinnamic Acid Derivatives as Leishmania major DHFR-TS Inhibitors” (Molecules, 2023)
pIC50: −log10 of the molar value. Where two headings read alike, the source gives them in different places.

Columns and labels:
[1] = system: TNBC cells; details: read-out: IC50, TNBC cells in vitro; FAK inhibitor; proliferation, invasion, migration; cited from earlier work
[2] = system: Leishmania amastigotes; parameters: method as in earlier work; details: ref 24 (Gouri et al.); read-out: IC50 against Leishmania amastigotes; cited from earlier work
[3] = target: T1, LmDHFR-TS (Leishmania major, UniProt P07382); assay: LmDHFR-TS enzymatic inhibition assay (spectrophotometric standard DHFR assay); format: biochemical; details: for SI (selectivity index): HsDHFR versus LmDHFR-TS
T1 construct: made in house
Procedure: The determination of IC50 values involved analyzing concentration-response curves within the 0.1–128 μM range, employing spectrophotometric monitoring of enzymatic activity in a standard DHFR assay.
(§1) Purification and kinetic characterization of the recombinant LmDHFR-TS protein were performed according to the previously reported procedures, while HsDHFR protein was obtained from the commercial assay kit (CS0340, Merck KGaA, Darmstadt, Germany). […] These tested compounds were available from our in-house compound library.
(§2) The assay was conducted with either LmDHFR-TS or HsDHFR (2.7 nM), bovine serum albumin (BSA, 1 mg/mL), N-[tris(hydroxymethyl)-methyl]-2-aminoethanesulfonic acid (TES) buffer (100 mM, pH 7.0, 150 mM β-mercaptoethanol, 2 mM ethylenediaminetetraacetic acid (EDTA)), and nicotinamide adenine dinucleotide phosphate (NADPH, 100 μM), along with varying concentrations of the test compounds (0.1–128 μM). The reaction was initiated by adding the substrate (7,8-dihydrofolate (H2F), 20 μM) and monitored for 360 s at 340 nm, measuring the oxidation of NADPH to NADP+. This allowed the determination of the initial reaction rate (Vo) through linear regression analysis of the resulting absorbance profile.

[4] = target: T2, HsDHFR (Homo sapiens, UniProt P00374); assay: HsDHFR enzymatic inhibition assay (spectrophotometric standard DHFR assay); format: biochemical
T2 construct: purchased Merck KGaA CS0340
T2 sequence (P00374 1-187): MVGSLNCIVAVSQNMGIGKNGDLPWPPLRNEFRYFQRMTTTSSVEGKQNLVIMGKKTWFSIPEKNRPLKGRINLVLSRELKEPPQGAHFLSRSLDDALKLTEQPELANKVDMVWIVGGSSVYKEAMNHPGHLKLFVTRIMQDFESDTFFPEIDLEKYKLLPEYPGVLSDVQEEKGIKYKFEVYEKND
Procedure: Following this, we calculated the selectivity index (SI) based on the results obtained from in vitro tests using the recombinant protein of Homo sapiens (Hs) DHFR.
as §1, §2

[5] = system: BEL-7402; details: read-out: IC50 cytotoxic activity, BEL-7402; BEL-7402 cell line; cited from earlier work
[6] = system: HepG2; details: read-out: IC50 cytotoxic activity, HepG2; HepG2 cell line; cited from earlier work
[7] = recombinant LmDHFR-TS 2.7 nM, 0.1–128 μM test range, triplicate
[8] = HsDHFR 2.7 nM, 0.1–128 μM test range, triplicate, read-out: HsDHFR IC50

T1 sequence (P07382 whole entry): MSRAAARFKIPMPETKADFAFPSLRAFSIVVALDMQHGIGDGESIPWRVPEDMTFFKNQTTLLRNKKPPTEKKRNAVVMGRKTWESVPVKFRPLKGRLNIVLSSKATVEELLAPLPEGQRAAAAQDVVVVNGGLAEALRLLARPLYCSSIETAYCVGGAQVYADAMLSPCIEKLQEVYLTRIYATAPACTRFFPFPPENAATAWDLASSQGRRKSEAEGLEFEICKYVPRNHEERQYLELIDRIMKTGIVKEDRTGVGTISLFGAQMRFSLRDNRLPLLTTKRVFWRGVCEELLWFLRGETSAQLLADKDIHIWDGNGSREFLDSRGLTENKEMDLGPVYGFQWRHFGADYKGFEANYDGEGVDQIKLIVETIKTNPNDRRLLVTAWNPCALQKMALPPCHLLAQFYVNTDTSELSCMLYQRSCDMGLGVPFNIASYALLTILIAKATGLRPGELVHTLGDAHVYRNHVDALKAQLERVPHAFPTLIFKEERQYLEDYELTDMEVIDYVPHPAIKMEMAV

SMILES | pIC50 [2] | pIC50 [3] | pIC50 [4, 8] | other results
CN(C)CCN(C(=O)/C=C/c1c[nH]c2ccccc12)c1ccccn1 [(E)-N-(2-(dimethylamino)ethyl)-3-(1H-indol-3-yl)-N-(pyridin-2-yl) acrylamide] |  |  |  | pIC50 [1]: 5.08
O=c1cc(-c2ccc(O)c(O)c2)oc2cc(O)cc(O)c12 [luteolin] | 5.51 |  |  | 
O=c1c(O)c(-c2ccc(O)c(O)c2)oc2cc(O)cc(O)c12 [quercetin] | 4.98 |  |  | 
C[C@@H]1O[C@@H](OC[C@H]2O[C@@H](Oc3c(-c4ccc(O)c(O)c4)oc4cc(O)cc(O)c4c3=O)[C@H](O)[C@@H](O)[C@@H]2O)[C@H](O)[C@H](O)[C@H]1O [rutin] |  | 4.38 | 3.72 | SI (selectivity index) [3]: 4.5; LmDHFR-TS IC50 [3, 7]: low activity
O=c1cc(-c2ccccc2)oc2cc(O)cc(O)c12 [Compound 69, chrysin] | 4.89 |  |  | 
C[C@H]1CCC/C=C/[C@@H]2C[C@H](O)C[C@H]2[C@H](OC(=O)/C=C/c2ccc(N(C)C)cc2)/C=C/C(=O)O1 [brefeldin A 4-O-(4)-dimethylaminocinnamate] |  |  |  | pIC50 [5]: 6.08; pIC50 [6]: 6.54
COc1cc(C[C@H]2COC(=O)[C@@H]2Cc2cc(OC)c3c(c2)[C@H](CO)[C@@H](c2ccc(O)c(OC)c2)O3)ccc1O [Compound 308, isolappaol A] |  | 5.00 | 4.35 | 
O=c1cc(-c2ccc(O[C@@H]3O[C@H](CO)[C@@H](O)[C@H](O)[C@H]3O)cc2)oc2cc(O)c([C@@H]3O[C@H](CO)[C@@H](O)[C@H](O)[C@H]3O)c(O)c12 [isovitexin 4′-O-glucoside] |  |  | 3.90 | SI (selectivity index) [3]: 2.4; LmDHFR-TS IC50 [3, 7]: low activity; pIC50 ([3]; recombinant LmDHFR-TS 2.7 nM, 0.1–128 μM test range, triplicate, read-out: LmDHFR-TS IC50): 4.27
COc1ccc([C@@H]2CC(=O)c3c(O)cc(O[C@@H]4O[C@H](CO[C@@H]5O[C@@H](C)[C@H](O)[C@@H](O)[C@H]5O)[C@@H](O)[C@H](O)[C@H]4O)cc3O2)cc1O [Compound 140, hesperidin] |  | 4.67 |  | SI (selectivity index) [3]: 4.0; LmDHFR-TS IC50 [3, 7]: low activity; pIC50 [4]: 4.06
COc1ccc(C[C@H]2COC(=O)[C@@H]2Cc2cc(OC)c(O)c(-c3cc(C[C@H]4C(=O)OC[C@@H]4Cc4ccc(OC)c(OC)c4)cc(OC)c3O)c2)cc1OC [Compound 306, diarctigenin] |  | 5.21 | 4.55 | 
O=C(/C=C/c1ccc(O)c2c1[C@H](C(=O)O)[C@@H](c1ccc(O)c(O)c1)O2)O[C@H](Cc1ccc(O)c(O)c1)C(=O)O [Compound 237, lithospermic acid] |  | 5.12 | 4.65 | 
O=C(O)/C=C/c1ccccc1 [cinnamic acid] | 6.60 |  |  | 
C=CC(C)(C)c1cc(/C=C/C(=O)c2ccc(O)cc2)c(OC)cc1O [licochalcone A] | 6.05 |  |  | 
